Key:
[1] = tested on: NLS-tdTomato expressing Dictyostelium cells; details: for CIMPAQ hit category, kinase inhibitor collection / CIMPAQ hit category, ion channel collection: BIOMOL pilot screen; for CIMPAQ hit category, kinase inhibitor collection: 84 protein kinase inhibitors; for CIMPAQ hit category, ion channel collection: 70 ion channel inhibitors
Method: NLS-tdTomato expressing Dictyostelium cells were challenged with […] compounds from the ChemBridge Divert-SET library and imaged over three days. Raw data was segmented by CIMPAQ, a designed analytical platform, which rank ordered hits based on their cytokinesis or mitotic inhibitory activity, or lethality. Hits were confirmed through a dose-dependent secondary screening.
Ax3::NLS-tdTomato cells were plated on 384-well COP plates with a MicroFloSelect microplate dispenser (BioTek, Winooski, Vt.) at volumes of 80 μl with a cell concentration of 1000 cells/ml for the 24- and 48-hr time points and at the same volume with a cell concentration of 220 cells/ml for the 72-hr time point. Each plate contained four rows of untreated cells with 0.2% DMSO. For the remaining wells, […] of each small molecule maintained at the Johns Hopkins ChemCORE facility, was added, with a final DMSO concentration of 0.2%. Almost half of the ChemBridge Divert-SET library, which is a 50,000 compound chemical diversity library, was screened over a three-day period on a Becton Dickinson Pathway 855 Bioimager System using a 20× objective (NA 0.75). Each image consisted of a montage of four images collected around the center of the well, resulting in a total size of 1344×1024 pixels per image.
Secondary chemical screening was carried out in quadruplicate, with identical culturing conditions as to the primary screen. 14 mM stocks of each compounds dissolved in 100% DMSO were diluted to the following final concentrations: […], 3.5 nM, 35 nM, 350 nM, 3.5 μM, and 35 μM.
Raw image files from both the primary and secondary screening were processed through CIMPAQ (FIGS. 9E and 9F). The single wavelength fluorescence images were converted from 16-bit format to 8-bit format. The MATLAB Image Processing Toolbox was utilized to segment the images in order to identify the nuclei and cytoplasm. The number of nuclei within each segmented cell was quantified to produce a histogram of nuclei per cell for each image (FIG. 9G). All segmented cells that were coincident with the image edge were disregarded.
Image analysis using CIMPAQ: From the histogram of nuclei per cell count, the ratio of the number of multinucleate cells to the number of mononucleate cells and the ratio of the number of binucleate cells to the number of mononucleate cells were computed. Multinucleate cells are defined as cells that contain >2 nuclei. The distribution of both ratios across multiple wells were simultaneously visualized using a scatter plot, with the ratio of multinucleate cells to mononucleate cells plotted on the x-axis and the ratio of binucleate cells to mononucleate cells plotted on the y-axis (FIGS. 9H and 9I). Other information such as the average number of nuclei per cell, the mean nuclear area, and the normalized histogram with respect to total cell number were also computed.
Hit identification using CIMPAQ: Compounds that generate an increase in the number of multinucleate (>2 nuclei/cell) cells are considered cytokinesis inhibitors. Because nearly all cultured cells, including Dictyostelium, have a low background (typically <5% for WT) of non-mononucleate cells, CIMPAQ spreads the data for each sample by determining the ratio (bi:mono) of binucleate (2 nuclei/cell) to mononucleate cells and the ratio (multi:mono) of multinucleate (>2 nuclei/cell) to mononucleate cells. These two ratios then define a set of Cartesian coordinates, describing the effect of each compound on a given cell-line. The coordinates for each compound are plotted on a two-dimensional graph. CIMPAQ fits the control data to a two-dimensional Gaussian distribution (FIG. 9H) and determines the contour lines for two standard deviations (2SD), 3SD, etc. from the control mean (FIG. 9I).
Hit compounds are rank-ordered based on how many SDs away they are from the untreated wells.

[2] = molecular target: EGF receptor tyrosine kinase (Homo sapiens, UniProt P00533); details: cited from earlier work
Sequence of EGF receptor tyrosine kinase (P00533 25-1210): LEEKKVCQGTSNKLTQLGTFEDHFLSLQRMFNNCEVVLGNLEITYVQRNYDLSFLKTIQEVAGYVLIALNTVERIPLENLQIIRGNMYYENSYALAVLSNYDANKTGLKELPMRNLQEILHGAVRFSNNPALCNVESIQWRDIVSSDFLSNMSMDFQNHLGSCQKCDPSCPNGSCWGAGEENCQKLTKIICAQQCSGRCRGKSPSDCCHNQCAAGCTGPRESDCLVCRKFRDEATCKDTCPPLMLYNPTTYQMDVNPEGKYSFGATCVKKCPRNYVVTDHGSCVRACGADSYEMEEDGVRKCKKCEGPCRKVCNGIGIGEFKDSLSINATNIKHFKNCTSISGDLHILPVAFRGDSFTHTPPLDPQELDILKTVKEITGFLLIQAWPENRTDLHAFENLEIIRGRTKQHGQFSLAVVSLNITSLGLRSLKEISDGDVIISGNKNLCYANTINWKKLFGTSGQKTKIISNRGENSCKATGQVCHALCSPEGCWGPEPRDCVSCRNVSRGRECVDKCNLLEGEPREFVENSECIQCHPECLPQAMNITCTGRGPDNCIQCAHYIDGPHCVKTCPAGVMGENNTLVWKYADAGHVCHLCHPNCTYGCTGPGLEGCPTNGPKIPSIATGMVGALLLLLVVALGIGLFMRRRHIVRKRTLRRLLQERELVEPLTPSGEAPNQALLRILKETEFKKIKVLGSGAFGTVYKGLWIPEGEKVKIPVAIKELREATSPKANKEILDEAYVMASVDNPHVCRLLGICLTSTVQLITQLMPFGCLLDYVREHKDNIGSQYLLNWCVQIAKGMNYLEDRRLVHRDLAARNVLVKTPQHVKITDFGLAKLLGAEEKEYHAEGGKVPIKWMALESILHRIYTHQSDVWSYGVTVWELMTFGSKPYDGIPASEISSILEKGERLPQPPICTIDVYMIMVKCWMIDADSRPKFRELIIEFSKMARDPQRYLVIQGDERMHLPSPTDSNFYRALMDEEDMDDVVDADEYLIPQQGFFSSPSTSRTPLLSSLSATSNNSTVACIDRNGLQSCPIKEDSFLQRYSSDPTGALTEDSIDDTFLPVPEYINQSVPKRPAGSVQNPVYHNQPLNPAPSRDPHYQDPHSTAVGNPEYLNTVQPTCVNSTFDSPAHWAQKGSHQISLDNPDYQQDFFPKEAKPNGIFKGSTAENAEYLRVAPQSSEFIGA

[3] = tested on: Dictyostelium cells; experiment: Micropipette aspiration cortical tension, Dictyostelium; format: cell-based, Dictyostelium discoideum; details: acute treatment; 700 μM printed
Method: (§1) Micropipette aspiration was used for cortical tension and creep response measurements. Confocal imaging was performed on a Zeiss 510 Meta with a 63× (numerical aperture [NA] 1.4) objective (Carl Zeiss, Jena, Germany). Epifluorescence and TIRF imaging was performed in a 22° C. temperature controlled room with an Olympus IX81 microscope using a 40× (NA 1.3) or 60× (NA 1.49) objective and a 1.4× optovar (Olympus, Center Valley, Pa.), as previously described. Image analysis was performed with ImageJ (rsb.info.nih.gov/ij).
The instrumental and experimental setups have been previously described (Effler J C, et al., 2006; Kee Y-S, et al., 2013). Micropipette aspiration assays were all carried out in growth media with 0.1% DMSO. For cortical tension measurements of Dictyostelium cells, pressure was applied to the cell cortex with a micropipette (2-3 m radius, Rp) to the equilibrium pressure (ΔP) where the length of the cell inside the pipette (Lp) was equal to Rp. The effective cortical tension (Teff) was calculated by applying the Young-Laplace equation: ΔP=2Teff(1/Rp-1/Rc), where Rc is the radius of the cell and ΔP is the equilibrium pressure when Lp=Rp (Derganc J, et al., 2000; Octtaviani E, et al., 2006). For creep tests on mammalian strains, a constant aspiration stress was applied over 60 s. The micropipette radius was 3.5-4.5 m. For quantification, the Lp/Rp ratio values was measured every two seconds and plotted as a function of time. A10.7 and HEK293 cells could only be aspirated at a low pressure range (0.15 nN/μm^2), while HPDE, ASPC-1, and HL-60 cells could be aspirated at higher pressure ranges (0.25 nN/μm^2) because they were stiffer.

[4] = Degradation/stability of carbamate-7 in solvent (TLC, HPLC); format: physicochemical; details: standing in methanol
Method: Upon standing in methanol, the product obtained above degraded within 2.5 hr, as determined by TLC analysis. Degradation appeared more rapid in DMSO, the solvent used to generate stock solutions for biological evaluation. Thus, carbamate-7 obtained either by chemical synthesis or commercially from ChemBridge was dissolved in DMSO (1 mg/mL), and a time course to study its degradation was initiated immediately upon solvation. To stop the degradation reaction such that the product distribution could be captured at early time points, aliquots (40 μL) were rapidly frozen into Eppendorf tubes incubating on dry ice. HPLC analysis on a Beckman Gold Nouveau HPLC System was performed on each sample immediately upon thawing. Carbamate-7 (5180622) degradation products were eluted at 3 mL/min from a Grace Alltima C18 column (length=53 mm, ID=7 mm, particle size=3 μM) over a linear gradient (5:95 acetonitrile/100 mM NH4OAc (pH 6.8) to 100% 100 mM NH4OAc (pH 6.8) over 15 min).
Comparison of the urea product to authentic N,N′-Bis(3,4-dichlorophenyl) urea was performed using a linear gradient (5:95 acetonitrile/100 mM NH4OAc (pH 6.8) to 100% 100 mM NH4OAc (pH 6.8) over 5 min). […] Confirmation of the urea was further confirmed via characteristic fragmentation patterns determined using product ion (MS-MS) analysis monitoring in negative ion mode (FIG. 11C).

[5] = molecular target: T1, myosin II (Dictyostelium discoideum, UniProt P08799); experiment: Myosin II cortical localization by SIM, TIRF and confocal imaging; format: cell-based; details: 500 nM time course
T1 construct: expressed in transfected cells; host or cells: Dictyostelium discoideum myoII null cells rescued with GFP-myosin II
T1 sequence (P08799 whole entry): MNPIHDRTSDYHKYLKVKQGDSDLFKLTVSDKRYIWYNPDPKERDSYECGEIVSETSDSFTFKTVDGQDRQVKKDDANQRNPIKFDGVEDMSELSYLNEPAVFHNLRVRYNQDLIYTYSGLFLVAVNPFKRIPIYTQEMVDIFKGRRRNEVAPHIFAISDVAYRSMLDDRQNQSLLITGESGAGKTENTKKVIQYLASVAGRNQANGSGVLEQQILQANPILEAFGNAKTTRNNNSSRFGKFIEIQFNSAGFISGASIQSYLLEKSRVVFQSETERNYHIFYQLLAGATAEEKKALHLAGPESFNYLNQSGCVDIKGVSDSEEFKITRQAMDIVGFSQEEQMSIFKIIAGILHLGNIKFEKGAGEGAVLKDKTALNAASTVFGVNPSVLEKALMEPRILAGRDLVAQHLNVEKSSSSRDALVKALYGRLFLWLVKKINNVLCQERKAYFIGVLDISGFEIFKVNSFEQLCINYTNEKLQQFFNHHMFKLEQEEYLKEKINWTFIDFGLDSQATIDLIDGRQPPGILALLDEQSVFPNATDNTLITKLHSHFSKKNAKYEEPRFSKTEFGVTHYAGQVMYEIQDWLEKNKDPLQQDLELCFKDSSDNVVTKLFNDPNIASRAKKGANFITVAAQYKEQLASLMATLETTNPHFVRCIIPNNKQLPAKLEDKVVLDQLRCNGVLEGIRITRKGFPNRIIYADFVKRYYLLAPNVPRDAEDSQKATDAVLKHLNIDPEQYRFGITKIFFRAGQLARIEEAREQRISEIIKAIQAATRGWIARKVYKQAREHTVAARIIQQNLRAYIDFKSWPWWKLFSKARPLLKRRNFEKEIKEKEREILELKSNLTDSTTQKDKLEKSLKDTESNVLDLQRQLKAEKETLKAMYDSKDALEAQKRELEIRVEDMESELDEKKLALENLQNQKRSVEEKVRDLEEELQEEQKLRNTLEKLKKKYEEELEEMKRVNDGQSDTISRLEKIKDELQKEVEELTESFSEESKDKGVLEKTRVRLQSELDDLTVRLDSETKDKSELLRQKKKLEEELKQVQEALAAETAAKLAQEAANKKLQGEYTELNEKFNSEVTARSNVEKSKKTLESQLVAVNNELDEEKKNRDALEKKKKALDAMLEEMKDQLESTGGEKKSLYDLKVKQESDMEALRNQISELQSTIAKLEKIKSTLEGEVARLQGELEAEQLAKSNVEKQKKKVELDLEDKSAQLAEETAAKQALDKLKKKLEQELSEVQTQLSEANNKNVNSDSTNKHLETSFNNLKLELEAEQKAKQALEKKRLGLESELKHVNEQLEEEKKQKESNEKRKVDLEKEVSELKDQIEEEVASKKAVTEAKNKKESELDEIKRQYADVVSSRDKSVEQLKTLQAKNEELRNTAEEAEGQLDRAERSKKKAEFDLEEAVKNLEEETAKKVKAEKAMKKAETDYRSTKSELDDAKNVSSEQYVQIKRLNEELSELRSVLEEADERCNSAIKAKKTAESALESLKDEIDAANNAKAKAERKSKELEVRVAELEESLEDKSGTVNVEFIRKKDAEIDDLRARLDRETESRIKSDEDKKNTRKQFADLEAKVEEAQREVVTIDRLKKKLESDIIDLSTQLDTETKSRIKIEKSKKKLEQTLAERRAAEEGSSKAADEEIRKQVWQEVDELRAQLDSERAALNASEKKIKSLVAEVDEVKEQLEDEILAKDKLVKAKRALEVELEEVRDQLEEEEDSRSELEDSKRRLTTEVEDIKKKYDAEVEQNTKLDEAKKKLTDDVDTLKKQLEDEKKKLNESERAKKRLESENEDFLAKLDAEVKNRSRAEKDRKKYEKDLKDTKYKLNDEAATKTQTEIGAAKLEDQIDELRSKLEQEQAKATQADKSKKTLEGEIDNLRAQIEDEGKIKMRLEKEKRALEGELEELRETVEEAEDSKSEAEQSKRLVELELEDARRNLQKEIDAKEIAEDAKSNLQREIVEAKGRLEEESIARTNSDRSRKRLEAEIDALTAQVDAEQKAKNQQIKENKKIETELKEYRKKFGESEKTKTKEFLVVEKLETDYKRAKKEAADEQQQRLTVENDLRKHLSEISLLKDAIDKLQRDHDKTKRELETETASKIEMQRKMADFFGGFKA
Method: as §1
Imaging conditions during primary screen are described above. All other image analysis was performed as previously described (Kee Y S, et al., 2012). Cells were transferred from Petri dishes (with 0.1% DMSO incubation in growth media of 4 hrs) to imaging chambers and allowed to adhere for 20 min in growth media with 0.1% DMSO. After the cells adhered, the growth media was replaced with 2-(N-morpholino)ethanesulfonic acid (MES) starvation buffer (50 mM MES, pH 6.8, 2 mM MgCl2, 0.2 mM CaCl2) with 0.1% DMS. Confocal imaging was performed on aZeiss 510 Meta with a 63× (numerical aperture [NA] 1.4) objective (Carl Zeiss, Jena, Germany). Epifluorescence and TIR imaging was performed in a 22° C. temperature controlled room with an Olympus IX81 microscope using a 40× (NA 1.3) or 60× (NA […]) objective and a 1.4× optovar (Olympus, Center Valley, Pa.), as previously described. Image analysis was performed with ImageJ (rsb.info.nih.gov/ij). Many data sets were independently analyzed by multiple investigators.

## CCCCCCCCCCCCCCCC(=O)OC(CC(=O)O)C[N+](C)(C)C.[Cl-] (racemic) [Palmitoyl-DL-carnitine Cl]
[1]
  CIMPAQ hit category, kinase inhibitor collection: Lethal at 10 μM

## O=C(O)c1cc(NCc2cc(O)ccc2O)ccc1O [2-Hydroxy-5-(2,5-dihydroxybenzylamino) benzoic acid]
[1]
  CIMPAQ hit category, kinase inhibitor collection: Lethal at 10 μM

## C/C(CCc1ccccc1)=N\Nc1ccc([N+](=O)[O-])cc1 [4-phenyl-2-butanone (4-nitrophenyl) hydrazone]
[1]; Dictyostelium Drug Discovery Platform (3DP)
  cell division: inhibit cell division

## N#CC(=Cc1ccc2[nH]ccc2c1)C(N)=C(C#N)C#N [AG-370]
[1]
  CIMPAQ hit category, kinase inhibitor collection: Lethal at 5 μM

## CNc1ccc2oc(C[C@H]3O[C@@]4(CC[C@H]3C)O[C@H]([C@H](C)C(=O)c3ccc[nH]3)[C@H](C)C[C@H]4C)nc2c1C(=O)O [Antibiotic A-23187]
[1]
  CIMPAQ hit category, ion channel collection: Lethal at 5 μM

## CC(C)COCC(CN(Cc1ccccc1)c1ccccc1)N1CCCC1 (stereo not drawn) [Bepridil]
[1]
  CIMPAQ hit category, ion channel collection: Lethal at 5 μM

## COC(=O)/C=C/c1cc(O)ccc1O [Erbstatin analog]
[2]
  known IC50: inhibitor; known IC50 (0.5 μg/ml

## COc1cccc(-c2cc(=O)c3ccccc3o2)c1N [PD-98059]
[1]
  CIMPAQ hit category, kinase inhibitor collection: Lethal at 5 μM

## Cc1ccc(-c2nn(C(C)(C)C)c3ncnc(N)c23)cc1 [PP1]
[1]
  CIMPAQ hit category, kinase inhibitor collection: Lethal at 5 μM

## COc1ccc(CCCOC(Cn2ccnc2)c2ccc(OC)cc2)cc1 (stereo not drawn) [SKF-96365]
[1]
  CIMPAQ hit category, ion channel collection: Lethal at 5 μM

## CC(C)(C)c1cc(C=C(C#N)C#N)cc(C(C)(C)C)c1O [Tyrphostin 9]
[1]
  CIMPAQ hit category, kinase inhibitor collection: Lethal at 5 μM

## CC(=O)c1ccc(OC(=O)Nc2ccc(Cl)c(Cl)c2)cc1 [carbamate-7, 4-acetylphenyl-(3,4-dichlorophenyl) carbamate]
[3]
  increase in cortical tension: 1.4 fold
[4]
  time to degradation: ≤ 2.5 h

## COC(=O)Nc1nc2ccc(C(=O)c3cccs3)cc2[nH]1 [nocodazole]
[1]
  identification as early mitotic inhibitor (average nuclear area greater than 28 pixels): reliably identified

## O=C(Nc1ccc(Cl)c(Cl)c1)Nc1ccc(Cl)c(Cl)c1 [urea, N,N′-bis(3,4-dichlorophenyl)urea]
[5]
  changes in myosin II cortical distribution (TIRF): Neither 3,4-DCA nor the urea result in changes in myosin II cortical distribution

— patent US11834401B2, “Treating and preventing diseases by modulating cell mechanics” (THE JOHNS HOPKINS UNIVERSITY, priority 2013, dated 2023)
